Laboratory results taken from patent publication US20110245293A1, “PHARMACEUTICAL PRODUCT COMPRISING A MUSCARINIC RECEPTOR ANTAGONIST AND A BETA-2-ADRENOCEPTOR AGONIST” (priority 2008, published 2011).
Where a name gives a salt, the structure may show the parent alone.

Experiments:
[1] = target: T1, Adrenergic β2 (Homo sapiens, UniProt P07550); test: Adrenergic β2 mediated cAMP production in H292 cells (AlphaScreen); assay type: cell-based; conditions: Intrinsic Activity as a fraction relative to the maximum activity of formoterol
T1 construct: endogenous in cells; host or cells: H292 cells
Method: Adrenergic β2 Mediated cAMP Production
H292 cells were grown in 225 cm2 flasks incubator at 37° C., 5% CO2 in RPMI medium containing, 10% (v/v) FBS (foetal bovine serum) and 2 mM L-glutamine.
Adherent H292 cells were removed from tissue culture flasks by treatment with Accutase™ cell detachment solution for 15 minutes. Flasks were incubated for 15 minutes in a humidified incubator at 37° C., 5% CO2. Detached cells were re-suspended in RPMI media (containing 10% (v/v) FBS and 2 mM L-glutamine) at 0.05×10^6 cells per mL. 5000 cells in 100 μL were added to each well of a tissue-culture-treated 96-well plate and the cells incubated overnight in a humidified incubator at 37° C., 5% CO2. The culture media was removed and cells were washed twice with 100 μL assay buffer and replaced with 50 μL assay buffer (HBSS solution containing 10 mM HEPES pH7.4 and 5 mM glucose). Cells were rested at room temperature for 20 minutes after which time 25 μL of rolipram (1.2 mM made up in assay buffer containing 2.4% (v/v) dimethylsulphoxide) was added. Cells were incubated with rolipram for 10 minutes after which time Compound A was added and the cells were incubated for 60 minutes at room temperature. The final rolipram concentration in the assay was 300 μM and final vehicle concentration was 1.6% (v/v) dimethylsulphoxide. The reaction was stopped by removing supernatants, washing once with 100 μL assay buffer and replacing with 50 μL lysis buffer. The cell monolayer was frozen at −80° C. for 30 minutes (or overnight).
The concentration of cAMP (cyclic adenosine monophosphate) in the cell lysate was determined using AlphaScreen™ methodology. […] The AlphaScreen™ signal was measured using an EnVision spectrophotometer (Perkin-Elmer Inc.) with the recommended manufacturer's settings. cAMP concentrations were determined by reference to a calibration curve determined in the same experiment using standard cAMP concentrations. […] Intrinsic Activity was expressed as a fraction relative to the maximum activity determined for formoterol in each experiment.

[2] = Dynamic vapour sorption (DVS) analysis of crystalline material; assay type: physicochemical; conditions: at 80% RH, 25° C.
Method: Dynamic vapour sorption (DVS) analysis was performed on a Surface Measurement systems (SMS) DVS-Intrinsic moisture sorption analyser. The instrument was controlled by SMS Analysis Suite software (DVS-Intrinsic Control v1.0.0.30). Analysis of the data was performed using Microsoft Excel 2007 together DVS Standard Analysis Suite (v6.0.0.7). Sample temperature was maintained at 25° C. and the sample humidity was obtained by mixing streams of wet and dry nitrogen at a total flow rate of 200 mlmin^−1. The relative humidity was measured using a calibrated Rotronic probe (dynamic range 1-100% Relative Humidity (RH)) located close to the sample. The weight change of the sample as a function of % RH was constantly monitored by the microbalance (accuracy±0.005 mg). Typically a PXRD would be run prior to analysis. 20 mg of sample was then placed in a tared stainless steel mesh basket under ambient conditions. The sample was loaded and unloaded at 40% RH and 25° C. (typical room conditions) and the sample subjected to a graduated DVS regime over 2 cycles using the parameters shown in Table 1.

[3] = Gravimetric Vapour Sorption (GVS) of crystalline material; assay type: physicochemical; conditions: at 80% RH
Method: Gravimetric Vapour Sorption (GVS) profiles were measured using a Surface Measurements Systems Dynamic Vapour Sorption DVS-1 or a DVS Advantage instrument. The solid sample ca. 1-5 mg was placed into a glass vessel and the weight of the sample was recorded during a dual cycle step method (40 to 90 to 0 to 90 to 0% relative humidity (RH), in steps of 10% RH).

T1 sequence (P07550 whole entry): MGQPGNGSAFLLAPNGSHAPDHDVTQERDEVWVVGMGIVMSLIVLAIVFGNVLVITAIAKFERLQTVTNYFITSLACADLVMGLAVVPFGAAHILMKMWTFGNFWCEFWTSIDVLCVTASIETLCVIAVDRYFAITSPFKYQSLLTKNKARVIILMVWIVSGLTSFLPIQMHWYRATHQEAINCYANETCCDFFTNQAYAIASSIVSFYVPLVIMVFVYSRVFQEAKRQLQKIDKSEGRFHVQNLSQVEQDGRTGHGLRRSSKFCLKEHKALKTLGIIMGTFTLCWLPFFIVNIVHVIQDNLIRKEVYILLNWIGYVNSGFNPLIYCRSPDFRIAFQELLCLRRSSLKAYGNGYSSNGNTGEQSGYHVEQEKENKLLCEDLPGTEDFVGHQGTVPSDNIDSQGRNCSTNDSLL

## CCN(CC)CCN(CCNCCc1ccc(O)c2[nH]c(=O)sc12)C(=O)CCOCCc1cccc2ccccc12 [BA1, N-[2-(Diethylamino)ethyl]-N-(2-{[2-(4-hydroxy-2-oxo-2,3-dihydro-1,3-benzothiazol-7-yl)ethyl]amino}ethyl)-3-[2-(1-naphthyl)ethoxy]propanamide dihydrobromide]
[1]
  β2 Int Act: 0.8

## CCN(CC)CCN(CCNCCc1ccc(O)c2[nH]c(=O)sc12)C(=O)CCOCCc1cccc(Cl)c1 [BA2, N-[2-(Diethylamino)ethyl]-N-(2-{[2-(4-hydroxy-2-oxo-2,3-dihydro-1,3-benzothiazol-7-yl)ethyl]amino}ethyl)-3-[2-(3-chlorophenyl)ethoxy]propanamide dihydrobromide]
[1]
  β2 Int Act: 0.7

## O=c1[nH]c2c(O)ccc([C@@H](O)CNCCSCCCNCCc3ccccc3Cl)c2s1 [BA3, 7-[(1R)-2-({2-[(3-{[2-(2-Chlorophenyl)ethyl]amino}propyl)thio]ethyl}amino)-1-hydroxyethyl]-4-hydroxy-1,3-benzothiazol-2(3H)-one dihydrobromide]
[1]
  β2 Int Act: 0.8

## O=S(=O)([O-])c1ccccc1.O[C@](c1ccccc1)(c1cc(C[N+]23CCC(CC2)[C@@H](Oc2ccc(F)cc2)C3)on1)C1CCCCC1 [Example 2, (R)-1-[3-((R)-Cyclohexyl-hydroxy-phenyl-methyl)-isoxazol-5-ylmethyl]-3-(4-fluoro-phenoxy)-1-azonia-bicyclo[2.2.2]octane benzenesulfonate]
[2]
  DVS weight increase: 0.2 % (% w/w)

## O[C@](c1ccccc1)(c1cc(C[N+]23CCC(CC2)[C@@H](Oc2cccc(F)c2)C3)on1)C1CCCCC1.[Cl-] [Example 3, (R)-1-[3-((R)-Cyclohexyl-hydroxy-phenyl-methyl)-isoxazol-5-ylmethyl]-3-(3-fluoro-phenoxy)-1-azonia-bicyclo[2.2.2]octane chloride]
[3]; 1st cycle
  GVS mass increase 1st cycle: approximately 5%
[3]; 2nd cycle
  GVS mass increase 2nd cycle: ~6.5%

## O[C@](c1ccccc1)(c1cc(C[N+]23CCC(CC2)[C@@H](Oc2cccc(F)c2)C3)on1)C1CCCCC1 [Example 4, (R)-1-[3-((R)-Cyclohexyl-hydroxy-phenyl-methyl)-isoxazol-5-ylmethyl]-3-(3-fluoro-phenoxy)-1-azonia-bicyclo[2.2.2]octane 2-hydroxy-ethanesulfonate]
[3]
  GVS mass increase: no mass increase

## O[C@](c1ccccc1)(c1nnc(C[N+]23CCC(CC2)[C@@H](Oc2ccc(F)cc2)C3)o1)C1CCCCC1.[Br-] [Example 5, (R)-1-[5-((R)-Cyclohexyl-hydroxy-phenyl-methyl)-[1,3,4]oxadiazol-2-ylmethyl]-3-(4-fluoro-phenoxy)-1-azonia-bicyclo[2.2.2]octane bromide]
[3]
  GVS mass increase: approximately 0.8%

## Cc1ccc(O[C@H]2C[N+]3(Cc4cc(C(O)(c5ccccc5)c5ccccc5)no4)CCC2CC3)cc1F.[Br-] [Example 7, (R)-3-(3-Fluoro-4-methyl-phenoxy)-1-[3-(hydroxy-diphenyl-methyl)-isoxazol-5-ylmethyl]-1-azonia-bicyclo[2.2.2]octane bromide]
[3]
  GVS mass increase: approximately 0.1%
